Experimental data published in patent publication US4173654A, “Novel fluorohydrocarbons” (California Institute of Technology, priority 1977, dated 1979).
Read-outs that look alike come from different tables or passages of the source.

What was measured:
[1] = Literature values or other data (D, V, δ, BP); assay type: physicochemical
[2] = Oxygen solubility measured by gas chromatograph having a thermal conductivity detector; assay type: physicochemical; settings: 25° C., 760 mm O2 pressure
Method: Oxygen solubilities were measured at 25° C. and 760 mm O2 pressure for representative hybrid, fluoroolefin and prior art compounds by means of a gas chromatograph having a thermal conductivity detector and calculated from molar volume and ΔH(vap) by the method of Fedors (Polymer, Engr. Sci. 14 147 (1974). Good agreement was obtained as shown in the following table: […]

[3] = 3M data; cited from earlier work

| SMILES | BP ([1]; 36mm) | D ([1]; unit not given) | V ([1]; unit not given) | δ ([1]; unit not given) | Measured O2 Solubility [2] | BP ([1]; 735mm) | D [1] | V [1] | δ [1] | BP ([1]; 750mm) | 3M solubility data (Literature Values) [3] |
| --- | --- | --- | --- | --- | --- | --- | --- | --- | --- | --- | --- |
| CCOC(=O)CC(C(F)(F)F)(C(F)(F)F)C(F)(F)F | 53 °C | 1.4895 | 205.5 | 7.39 | 34.4 cc O2 /100 cc FC | – | – | – | – | – | – |
| FC(F)(F)C(=C(C(F)(C(F)(F)F)C(F)(F)F)C(F)(C(F)(F)F)C(F)(F)F)C(F)(F)F | – | 1.820 | 219.8 | 6.4 | 39.5 cc O2 /100 cc FC | 110 °C | – | – | – | – | – |
| CCCCC(C(F)(F)F)(C(F)(F)F)C(F)(F)F [(CF3)3 C(CH2)3 CH3] | – | – | – | – | 41.2 cc O2 /100 cc FC | – | 1.393 g/cc | 198.3 cc/mole | 5.98 Hb | 101.5 °C | – |
| C=CCC(C(F)(F)F)(C(F)(F)F)C(F)(F)F [(CF3)3 CCH2 CHCH2] | – | 1.442 | 180.31 | 6.0 | 48 cc O2 /100 cc FC | 76 °C | – | – | – | – | – |
| FC(F)(F)C(F)(F)C(F)(F)C(F)(F)N(C(F)(F)C(F)(F)C(F)(F)C(F)(F)F)C(F)(F)C(F)(F)C(F)(F)C(F)(F)F [(n-C4 F9)3 N(FC-43), reference compound] | – | – | – | – | 36.8 cc O2 /100 cc FC | – | – | – | – | – | 38.9 cc O2 /100ccFC |
